*1 amine or outer side, *2 acyl side, *3 side chain or, on linkers, in order; H or OH if unused. Where a SMILES comes first, the peptide text is derived from it. Bridges are numbered along the chain shown (N, C = ends). [ ]: non-standard residue; d: D form. The star is where a group is joined. hPhe(3-Cl-4-CF3) = N[C@@H](CCc1ccc(C(F)(F)F)c(Cl)c1)C(=O)O; X48 = C=CCCN([C@@H](Cc1ccc(C)cc1)C(=O)[*:2])[*:1]; X22 = CCCN([C@@H](COC1CCC1)C(=O)[*:2])[*:1]; NMeGly(cPent) = CN[C@H](C(=O)O)C1CCCC1; NMeAllylGly = C=CC[C@H](NC)C(=O)O; NMeD = CN[C@@H](CC(=O)O)C(=O)O; NMeL = CN[C@@H](CC(C)C)C(=O)O; Morpholide = C1CN(*)CCO1; Ac5c = NC1(C(=O)O)CCCC1; Ac4c = NC1(C(=O)O)CCC1; Sar = CNCC(=O)O
Experiments:
[1] = target: GDP-bound NRAS wild-type protein (Homo sapiens, UniProt P01111); assay: Binding to NRAS by surface plasmon resonance (SPR), Single Cycle Kinetics; settings: SPR; for NRAS/KRAS (ratio of KD value with respect to NRAS to KD value with respect to KRAS) / NRAS/KRAS (ratio of KD value for NRAS to KD value for KRAS): GDP-bound NRAS wild-type vs GDP-bound KRAS wild-type
[2] = target: GDP-bound HRAS wild-type protein (Homo sapiens, UniProt P01112); assay: Binding to HRAS by surface plasmon resonance (SPR), Single Cycle Kinetics; settings: SPR; for HRAS/KRAS (ratio of KD value with respect to HRAS to KD value with respect to KRAS) / HRAS/KRAS (ratio of KD value for HRAS to KD value for KRAS): GDP-bound HRAS wild-type vs GDP-bound KRAS wild-type
Sequence of GDP-bound HRAS wild-type protein (P01112 whole entry): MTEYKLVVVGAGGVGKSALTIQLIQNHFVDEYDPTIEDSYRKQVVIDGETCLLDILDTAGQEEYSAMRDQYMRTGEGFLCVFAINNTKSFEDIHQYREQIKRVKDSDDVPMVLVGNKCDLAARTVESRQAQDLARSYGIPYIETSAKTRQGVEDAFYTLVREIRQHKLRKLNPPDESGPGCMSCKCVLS

Sequence of GDP-bound NRAS wild-type protein (P01111 whole entry): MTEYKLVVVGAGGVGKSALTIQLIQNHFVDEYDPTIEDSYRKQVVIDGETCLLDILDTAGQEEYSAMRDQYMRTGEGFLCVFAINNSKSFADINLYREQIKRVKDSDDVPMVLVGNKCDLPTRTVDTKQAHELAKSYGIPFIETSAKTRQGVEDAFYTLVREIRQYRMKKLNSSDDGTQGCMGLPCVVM

Structure (SMILES)	NRAS/KRAS (ratio of KD value with respect to NRAS to KD value with respect to KRAS) ([1]; KD ratio)	HRAS/KRAS (ratio of KD value with respect to HRAS to KD value with respect to KRAS) ([2]; KD ratio)	NRAS/KRAS (ratio of KD value for NRAS to KD value for KRAS) ([1]; KD ratio)	HRAS/KRAS (ratio of KD value for HRAS to KD value for KRAS) ([2]; KD ratio)	other results
CCO[C@@H]1C[C@H]2C(=O)NC3(CCC3)C(=O)N(C)[C@@H](C3CCCC3)C(=O)N(C)[C@H](C(=O)N3C[C@@H](C)O[C@@H](C)C3)CC(=O)N(C)[C@@H](CC(C)C)C(=O)N[C@@H]([C@@H](C)CC)C(=O)N(C)CC(=O)N(C)[C@H]3CCCCCN(C3=O)[C@@H](Cc3ccc(F)cc3)C(=O)N(C)CC(=O)N[C@@H](CCc3ccc(C(F)(F)F)c(Cl)c3)C(=O)N2C1 [PP1153]	B (a compound having 3 or more and less than 10 is denoted as B)	B (a compound having 3 or more and less than 10 is denoted as B)			
CCO[C@@H]1C[C@H]2C(=O)N[C@]3(C)CCCCCC[C@@H](C(=O)N[C@@H]([C@@H](C)CC)C(=O)N(C)CC(=O)N(C)[C@H]4CCCCN(C4=O)[C@@H](Cc4ccc(C(F)(F)F)cc4)C(=O)N(C)CC(=O)N[C@@H](CCc4cc(F)c(C(F)(F)F)c(F)c4)C(=O)N2C1)N(C)C(=O)C[C@@H](C(=O)N1CCOCC1)N(C)C(=O)[C@H](C1CCCC1)N(C)C3=O [PP0992]	B (a compound having 3 or more and less than 10 is denoted as B)	B (a compound having 3 or more and less than 10 is denoted as B)			
CCCN(C)C(=O)[C@@H]1CC(=O)N(C)[C@@H](C)C(=O)N[C@@H]([C@@H](C)CC)C(=O)N(C)CC(=O)N(C)[C@H]2C/C=C\CCN(C2=O)[C@@H](Cc2ccc(C(F)(F)F)cc2)C(=O)N(C)CC(=O)N[C@@H](CCc2cc(F)c(C(F)(F)F)c(F)c2)C(=O)N2C[C@H](OCC)C[C@H]2C(=O)NC2(CCC2)C(=O)N(C)[C@@H](C2CCCC2)C(=O)N1C [PP1666]			A (a compound having 10 or more and less than 20 is denoted as A)	A (a compound having 10 or more and less than 20 is denoted as A)	
C=CCCN1C(=O)[C@H](CC=C)N(C)C(=O)CN(C)C(=O)[C@H]([C@@H](C)CC)NC(=O)[C@H](CC(C)C)N(C)C(=O)C[C@@H](C(=O)N2CCOCC2)N(C)C(=O)[C@H](C2CCCC2)N(C)C(=O)C2(CCCC2)NC(=O)[C@@H]2CCCN2C(=O)[C@H](CCc2ccc(C(F)(F)F)c(Cl)c2)NC(=O)CN(C)C(=O)[C@@H]1Cc1ccc(C)cc1 [PP0140] ([NMeL]I[Sar][NMeAllylGly][X48][Sar][hPhe(3-Cl-4-CF3)]P[Ac5c][NMeGly(cPent)][NMeD]-Morpholide; lactam N-11)					NRAS/KRAS (ratio of KD for GDP-bound NRAS wild-type to KD for KRAS) ([1]; KD ratio NRAS/KRAS): C (A compound having a KD ratio of 0.1 or more and less than 3 is denoted as C); HRAS/KRAS (ratio of KD for GDP-bound HRAS wild-type to KD for KRAS) ([2]; KD ratio HRAS/KRAS): B (a compound having 3 or more and less than 10 is denoted as B)
CCO[C@@H]1C[C@H]2C(=O)NC3(CCC3)C(=O)N(C)[C@@H](C3CCCC3)C(=O)N(C)[C@H](C(=O)N(C)C)CC(=O)N(C)[C@@H](CC(C)C)C(=O)N[C@@H]([C@@H](C)CC)C(=O)N3CC[C@H]3C(=O)N(C)[C@H]3C[C@@H](C)CCN(C3=O)[C@@H](Cc3ccc(C(F)(F)F)cc3)C(=O)N(C)CC(=O)N[C@@H](CCc3cc(F)c(C(F)(F)F)c(F)c3)C(=O)N2C1 [PP1019]	C (A compound having a KD ratio of 0.1 or more and less than 3 is denoted as C)	B (a compound having 3 or more and less than 10 is denoted as B)			
CCO[C@@H]1C[C@H]2C(=O)NC3(CC(C)(C)C3)C(=O)N(C)[C@@H](C(CC)CC)C(=O)N(C)[C@H](C(=O)N(C)C)CC(=O)N(C)[C@@H](CC(C)C)C(=O)N[C@@H]([C@@H](C)CC)C(=O)N(C)CC(=O)N(C)[C@H]3C/C=C\CCN(C3=O)[C@@H](Cc3ccc(C)cc3)C(=O)N(C)CC(=O)N[C@@H](CCc3ccc(C(F)(F)F)c(Cl)c3)C(=O)N2C1 [PP2148]					NRAS/KRAS (ratio of KD value with respect to NRAS to KD value with respect to KRAS) [1]: A (a compound having 10 or more and less than 20 is denoted as A); HRAS/KRAS (ratio of KD value with respect to HRAS to KD value with respect to KRAS) [2]: A (a compound having 10 or more and less than 20 is denoted as A)
CCO[C@@H]1C[C@H]2C(=O)NC3(CCC3)C(=O)N(C)[C@@H](C3CCCC3)C(=O)N(C)[C@H](C(=O)N(C)C)CC(=O)N(C)[C@@H](CC3CCCCC3)C(=O)N[C@@H]([C@@H](C)CC)C(=O)N(C)CC(=O)N(C)[C@H]3CCCCCN(C3=O)[C@@H](Cc3ccc(C(F)(F)F)cc3)C(=O)N(C)CC(=O)N[C@@H](CCc3cc(F)c(C(F)(F)F)c(F)c3)C(=O)N2C1 [PP0671]					NRAS/KRAS (ratio of KD value with respect to GDP-bound NRAS wild-type protein to KD value with respect to KRAS) ([1]; KD ratio NRAS/KRAS): B (a compound having 3 or more and less than 10 is denoted as B); HRAS/KRAS (ratio of KD value with respect to GDP-bound HRAS wild-type protein to KD value with respect to KRAS) ([2]; KD ratio HRAS/KRAS): B (a compound having 3 or more and less than 10 is denoted as B)
CC[C@H](C)[C@@H]1NC(=O)[C@H](COC)N(C)C(=O)C[C@@H](C(=O)N(C)C)N(C)C(=O)[C@H](C2CCCC2)N(C)C(=O)C2(CC(C)(C)C2)NC(=O)[C@@H]2CC(F)(F)CN2C(=O)[C@H](CCc2cc(F)c(C(F)(F)F)c(F)c2)NC(=O)CN(C)C(=O)[C@H](Cc2ccc(C(F)(F)F)cc2)N2CC/C=C\C[C@@H](C2=O)N(C)C(=O)CN(C)C1=O [PP1717]			A (a compound having 10 or more and less than 20 is denoted as A)	A (a compound having 10 or more and less than 20 is denoted as A)	
CCO[C@@H]1C[C@H]2C(=O)NC3(CCC3)C(=O)N(C)[C@@H](C3CCCC3)C(=O)N(C)[C@H](C(=O)N3CCOCC3)CC(=O)N(C)[C@@H](COC)C(=O)N[C@@H]([C@@H](C)CC)C(=O)N(C)CC(=O)N(C)[C@H]3CCCCCN(C3=O)[C@@H](Cc3ccc(C(F)(F)F)cc3)C(=O)N(C)CC(=O)N[C@@H](CCc3ccc(C(F)(F)F)c(F)c3)C(=O)N2C1 [PP0848]	B (a compound having 3 or more and less than 10 is denoted as B)	B (a compound having 3 or more and less than 10 is denoted as B)			
CCO[C@@H]1C[C@H]2C(=O)NC3(CC(C)(C)C3)C(=O)N(C)[C@@H](C3CCCC3)C(=O)N(C)[C@H](C(=O)N(C)CC)CC(=O)N(C)[C@@H](CC)C(=O)N[C@@H]([C@@H](C)CC)C(=O)N(C)CC(=O)N(C)[C@H]3C/C=C\CCN(C3=O)[C@@H](Cc3ccc(C(F)(F)F)cc3)C(=O)N(C)CC(=O)N[C@@H](CCc3ccc(C(F)(F)F)c(OC)c3)C(=O)N2C1 [PP1653]			A (a compound having 10 or more and less than 20 is denoted as A)	A (a compound having 10 or more and less than 20 is denoted as A)	
CCCN1C(=O)CN(C)C(=O)CN(C)C(=O)[C@H]([C@@H](C)CC)NC(=O)[C@H](CC(C)C)N(C)C(=O)C[C@@H](C(=O)N2CCOCC2)N(C)C(=O)[C@H](C2CCCC2)N(C)C(=O)C2(CCC2)NC(=O)[C@@H]2CCCN2C(=O)[C@H](CCc2ccc(C(F)(F)F)c(Cl)c2)NC(=O)CN(C)C(=O)[C@@H]1COC1CCC1 [PP1816] ([NMeL]I[Sar][Sar][X22][Sar][hPhe(3-Cl-4-CF3)]P[Ac4c][NMeGly(cPent)][NMeD]-Morpholide; lactam N-11)			B (a compound having 3 or more and less than 10 is denoted as B)	C (A compound having a KD ratio of 0.1 or more and less than 3 is denoted as C)	
CCO[C@@H]1C[C@H]2C(=O)NC3(CC(C)(C)C3)C(=O)N(C)[C@@H](C3CCCC3)C(=O)N(C)[C@H](C(=O)N3CCCC3)CC(=O)N(C)[C@@H](CC)C(=O)N[C@@H]([C@@H](C)CC)C(=O)N(C)CC(=O)N(C)[C@H]3C/C=C\CCN(C3=O)[C@@H](Cc3ccc(C(F)(F)F)cc3)C(=O)N(C)CC(=O)N[C@@H](CCc3cc(F)c(C(F)(F)F)c(F)c3)C(=O)N2C1 [PP1944]			A (a compound having 10 or more and less than 20 is denoted as A)	A (a compound having 10 or more and less than 20 is denoted as A)	
CCO[C@@H]1C[C@H]2C(=O)NC3(CCC3)C(=O)N(C)[C@@H](C3CCCC3)C(=O)N(C)[C@H](C(=O)N3CCOCC3)CC(=O)N(C)[C@@H](Cc3ccccc3F)C(=O)N[C@@H]([C@@H](C)CC)C(=O)N(C)CC(=O)N(C)[C@H]3CCCCCN(C3=O)[C@@H](Cc3ccc(C(F)(F)F)cc3)C(=O)N(C)CC(=O)N[C@@H](CCc3cc(F)c(C(F)(F)F)c(F)c3)C(=O)N2C1 [PP0926]	B (a compound having 3 or more and less than 10 is denoted as B)	B (a compound having 3 or more and less than 10 is denoted as B)			
CCC[C@H]1C(=O)N[C@@H]([C@@H](C)CC)C(=O)N(C)CC(=O)N(C)[C@H]2C/C=C\CCN(C2=O)[C@@H](Cc2ccc(C)cc2)C(=O)N(C)CC(=O)N[C@@H](CCc2ccc(C(F)(F)F)c(Cl)c2)C(=O)N2C[C@@H](C)C[C@H]2C(=O)NC2(CC(C)(C)C2)C(=O)N(C)[C@@H](C2CCCC2)C(=O)N(C)[C@H](C(=O)N(C)CC)CC(=O)N1C [PP1893]			A (a compound having 10 or more and less than 20 is denoted as A)	B (a compound having 3 or more and less than 10 is denoted as B)	
CC[C@H](C)[C@@H]1NC(=O)[C@H](CC(C)C)N(C)C(=O)C[C@@H](C(=O)N(C)CC)N(C)C(=O)[C@H](C2CCCC2)N(C)C(=O)C2(CC(C)(C)C2)NC(=O)[C@@H]2C[C@@H](F)CN2C(=O)[C@H](CCc2cc(F)c(C(F)(F)F)c(F)c2)NC(=O)CN(C)C(=O)[C@H](Cc2ccc(C(F)(F)F)cc2)N2CC/C=C\C[C@@H](C2=O)N(C)C(=O)CN(C)C1=O [PP1694]			A (a compound having 10 or more and less than 20 is denoted as A)	A (a compound having 10 or more and less than 20 is denoted as A)	
